According to PubChem BioAssay AID1963982 (Molecular Pharmacology Branch, DTP, NCI, 2024):

Test system: 313798-341-R-J2-PDC spheroids, viability
Experiment: Anticancer human tumor 313798-341-R-J2-PDC patient-derived cervical squamous cell carcinoma cell line growth inhibition [PI3K]
Conditions: spheroids with HUVEC and MSC; for IC50: curve of first compound; for viability, T/C: stronger effect = lower value
How it was run: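 Targeted small molecules plus PI3K inhibitors, half-log dose series from Cmax (default top 10 microM), were applied to heterotypic spheroids of cancer cells with HUVEC and MSCs. Viability indicated growth inhibition.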

[1] = second compound 0.0316 µM, first compound 0.000316 µM
[2] = second compound 0.0316 µM, first compound 0.001 µM
[3] = second compound 0.0316 µM, first compound 0.00316 µM
[4] = second compound 0.0316 µM, first compound 0.01 µM
[5] = second compound 0.0316 µM, first compound 0.0316 µM
[6] = second compound 0.0316 µM, first compound 0.1 µM
[7] = second compound 0.1 µM, first compound 0.000316 µM
[8] = second compound 0.1 µM, first compound 0.001 µM
[9] = second compound 0.1 µM, first compound 0.00316 µM
[10] = second compound 0.1 µM, first compound 0.01 µM
[11] = second compound 0.1 µM, first compound 0.0316 µM
[12] = second compound 0.1 µM, first compound 0.1 µM
[13] = second compound 0.316 µM, first compound 0.000316 µM
[14] = second compound 0.316 µM, first compound 0.001 µM
[15] = second compound 0.316 µM, first compound 0.00316 µM
[16] = second compound 0.316 µM, first compound 0.01 µM
[17] = second compound 0.316 µM, first compound 0.0316 µM
[18] = second compound 0.316 µM, first compound 0.1 µM
[19] = second compound 1 µM, first compound 0.000316 µM
[20] = second compound 1 µM, first compound 0.001 µM
[21] = second compound 1 µM, first compound 0.00316 µM
[22] = second compound 1 µM, first compound 0.01 µM
[23] = second compound 1 µM, first compound 0.0316 µM
[24] = second compound 1 µM, first compound 0.1 µM
[25] = second compound 3.16 µM, first compound 0.000316 µM
[26] = second compound 3.16 µM, first compound 0.001 µM
[27] = second compound 3.16 µM, first compound 0.00316 µM
[28] = second compound 3.16 µM, first compound 0.01 µM
[29] = second compound 3.16 µM, first compound 0.0316 µM
[30] = second compound 3.16 µM, first compound 0.1 µM
[31] = second compound 10 µM, first compound 0.000316 µM
[32] = second compound 10 µM, first compound 0.001 µM
[33] = second compound 10 µM, first compound 0.00316 µM
[34] = second compound 10 µM, first compound 0.01 µM
[35] = second compound 10 µM, first compound 0.0316 µM
[36] = second compound 10 µM, first compound 0.1 µM
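Note: spheroids exposed to compounds for seven days.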
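Throughout, for viability, T/C: 100% = DMSO vehicle control viability.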

CC(=O)c1c(C)c2cnc(Nc3ccc(N4CCNCC4)cn3)nc2n(C2CCCC2)c1=O + Cc1nc(NC(=O)N2CCCC2C(N)=O)sc1-c1ccnc(C(C)(C)C(F)(F)F)c1 was tested, and the IC50 (second compound 0.0316 µM) was over 100 nM, the IC50 (second compound 0.1 µM) was over 100 nM and the IC50 (second compound 0.316 µM) was over 100 nM. It also gave an IC50 (second compound 1 µM) of over 100 nM, an IC50 (second compound 3.16 µM) of over 100 nM and an IC50 (second compound 10 µM) of under 0.316 nM. The viability, T/C [1] was 105%, the viability, T/C [2] was 96.5% and the viability, T/C [3] was 110%. The viability, T/C [4] was 105%, the viability, T/C [5] was 108% and the viability, T/C [6] was 111%. It also gave a viability, T/C [7] of 108%, a viability, T/C [8] of 99.1% and a viability, T/C [9] of 107%. For the same compound, the viability, T/C [10] was 107%, the viability, T/C [11] was 123% and the viability, T/C [12] was 110%. It also gave a viability, T/C [13] of 110%, a viability, T/C [14] of 101% and a viability, T/C [15] of 96.3%. For the same compound, the viability, T/C [16] was 108%, the viability, T/C [17] was 104% and the viability, T/C [18] was 115%. The viability, T/C [19] was 95.2%, the viability, T/C [20] was 98.1% and the viability, T/C [21] was 96%. The viability, T/C [22] was 98.7%, the viability, T/C [23] was 104% and the viability, T/C [24] was 102%. For the same compound, the viability, T/C [25] was 68.3%, the viability, T/C [26] was 58.9% and the viability, T/C [27] was 71.8%. For the same compound, the viability, T/C [28] was 69.4%, the viability, T/C [29] was 58.4% and the viability, T/C [30] was 79%. For the same compound, the viability, T/C [31] was 40.4%, the viability, T/C [32] was 41.7% and the viability, T/C [33] was 39.5%. It also gave a viability, T/C [34] of 33%, a viability, T/C [35] of 41.4% and a viability, T/C [36] of 36.4%.
In the case of CC(C)n1nc(-c2ccc3oc(N)nc3c2)c2c(N)ncnc21 + Cc1nc(NC(=O)N2CCCC2C(N)=O)sc1-c1ccnc(C(C)(C)C(F)(F)F)c1, the IC50 (second compound 0.0316 µM) is reported as 59 nM, the IC50 (second compound 0.1 µM) is reported as 59.6 nM and the IC50 (second compound 0.316 µM) is reported as 46.6 nM. For the same compound, the IC50 (second compound 1 µM) was 25.5 nM, the IC50 (second compound 3.16 µM) was 4.22 nM and the IC50 (second compound 10 µM) was under 0.316 nM. It also gave a viability, T/C [1] of 91.6%, a viability, T/C [2] of 96% and a viability, T/C [3] of 107%. For the same compound, the viability, T/C [4] was 94.6%, the viability, T/C [5] was 67.5% and the viability, T/C [6] was 35.3%. For the same compound, the viability, T/C [7] was 100%, the viability, T/C [8] was 93.6% and the viability, T/C [9] was 96.9%. For the same compound, the viability, T/C [10] was 91.1%, the viability, T/C [11] was 66.5% and the viability, T/C [12] was 36.5%. The viability, T/C [13] was 98.6%, the viability, T/C [14] was 91.6% and the viability, T/C [15] was 97.8%. It also gave a viability, T/C [16] of 76.8%, a viability, T/C [17] of 56.6% and a viability, T/C [18] of 39%. It also gave a viability, T/C [19] of 92%, a viability, T/C [20] of 84.2% and a viability, T/C [21] of 77.3%. For the same compound, the viability, T/C [22] was 64.4%, the viability, T/C [23] was 46% and the viability, T/C [24] was 30%. The viability, T/C [25] was 63.9%, the viability, T/C [26] was 55.1% and the viability, T/C [27] was 54.2%. The viability, T/C [28] was 43.5%, the viability, T/C [29] was 34.5% and the viability, T/C [30] was 21.4%. The viability, T/C [31] was 35.2%, the viability, T/C [32] was 32.2% and the viability, T/C [33] was 30.9%. The viability, T/C [34] was 25.1%, the viability, T/C [35] was 23.9% and the viability, T/C [36] was 14.4%.
